Experimental data from PMC11672637, “7-O-Carboxylic Acid-Substituted 3-O-Alkyl Difluoroquercetin; An Aztreonam-Potentiating Agent Against Carbapenemase-Producing Pseudomonas aeruginosa Through Simultaneous Inhibition of Metallo-β-Lactamase and Efflux Pump” (Antibiotics, 2024).
Values belong to the compound of their own block, whether it stands above or below them.

Tests used:
Test in all cases: MIC / checkerboard with ATM
Parameters in all cases: key to Susceptibility category: S: susceptible; I: intermediate; R: resistant
PA-009, blaGES = assay type: cell-based, P. aeruginosa; conditions: PA-009, Table S2
PA-014, blaGES = assay type: cell-based, P. aeruginosa; conditions: PA-014, Table S2
PA-035, blaGES = assay type: cell-based, P. aeruginosa; conditions: PA-035, Table S2; for MIC: Pseudomonas aeruginosa, read-out: MIC value
PA-003, blaVIM = assay type: cell-based, P. aeruginosa; conditions: PA-003, Table S2; for MIC: Pseudomonas aeruginosa, read-out: MIC value
PA-002, blaIMP = assay type: cell-based, P. aeruginosa; conditions: PA-002, Table S2; for MIC: Pseudomonas aeruginosa, read-out: MIC value
PA-016, blaIMP = assay type: cell-based, P. aeruginosa; conditions: PA-016; Table S2
PA-021, blaIMP = assay type: cell-based, P. aeruginosa; conditions: PA-021, Table S2
PA-027, blaIMP = assay type: cell-based, P. aeruginosa; conditions: PA-027; Table S2
PA-029, blaIMP = assay type: cell-based, P. aeruginosa; conditions: PA-029; Table S2
PA-030, blaIMP = assay type: cell-based, P. aeruginosa; conditions: PA-030; Table S2
PA-032, blaIMP = assay type: cell-based, P. aeruginosa; conditions: PA-032, Table S2
[1] = system: NDM-1-Producing P. aeruginosa (PA-017, blaNDM); assay type: cell-based; conditions: PA-017; Table S2
PA-025, blaNDM = assay type: cell-based, P. aeruginosa; conditions: PA-025; Table S2
PA-026, blaNDM = assay type: cell-based, P. aeruginosa; conditions: PA-026, Table S2; for MIC: Pseudomonas aeruginosa, read-out: MIC value
PA-028, blaNDM = assay type: cell-based, P. aeruginosa; conditions: PA-028; Table S2
PA-031, blaNDM = assay type: cell-based, P. aeruginosa; conditions: PA-031; Table S2
PA-033, blaNDM = assay type: cell-based, P. aeruginosa; conditions: PA-033; Table S2
PA-034, blaNDM = assay type: cell-based, P. aeruginosa; conditions: PA-034; Table S2
PA-036, blaNDM = assay type: cell-based, P. aeruginosa; conditions: PA-036; Table S2
PA-038, blaNDM = assay type: cell-based, P. aeruginosa; conditions: PA-038; Table S2
PA-039, blaNDM = assay type: cell-based, P. aeruginosa; conditions: PA-039, Table S2; for MIC: Pseudomonas aeruginosa, read-out: MIC value
PA-040, blaNDM = assay type: cell-based, P. aeruginosa; conditions: PA-040; Table S2
PA-041, blaNDM = assay type: cell-based, P. aeruginosa; conditions: PA-041, Table S2
PA-044, blaNDM = assay type: cell-based, P. aeruginosa; conditions: PA-044; Table S2
PA-037, blaIMP/NDM = assay type: cell-based, P. aeruginosa; conditions: PA-037; Table S2
PA-042, blaIMP/NDM = assay type: cell-based, P. aeruginosa; conditions: PA-042, Table S2; for MIC: Pseudomonas aeruginosa, read-out: MIC value
[2] = Pseudomonas aeruginosa, read-out: MIC value

MIC (PA-009, blaGES; [2]): 16 µg/mL | MIC (PA-014, blaGES; [2]): 8 µg/mL | MIC (PA-035, blaGES): ≤ 4 µg/mL | MIC (PA-021, blaIMP; [2]): 16 µg/mL | MIC (PA-039, blaNDM): ≤ 4 µg/mL
Compound: NCC[C@H](O)C(=O)N[C@@H]1C[C@H](N)[C@@H](O[C@H]2O[C@H](CN)[C@@H](O)[C@H](O)[C@H]2O)[C@H](O)[C@H]1O[C@H]1O[C@H](CO)[C@@H](O)[C@H](N)[C@H]1O [AMK, amikacin, reference compound]
Susceptibility category (PA-009, blaGES): S | Susceptibility category (PA-014, blaGES): S | Susceptibility category (PA-035, blaGES): S | Susceptibility category (PA-003, blaVIM): R | Susceptibility category (PA-002, blaIMP): R | Susceptibility category (PA-016, blaIMP): R | Susceptibility category (PA-021, blaIMP): S | Susceptibility category (PA-027, blaIMP): R | Susceptibility category (PA-029, blaIMP): R | Susceptibility category (PA-030, blaIMP): R | Susceptibility category (PA-032, blaIMP): S | Susceptibility category [1]: R | Susceptibility category (PA-025, blaNDM): R | Susceptibility category (PA-026, blaNDM): S | Susceptibility category (PA-028, blaNDM): R | Susceptibility category (PA-031, blaNDM): R | Susceptibility category (PA-033, blaNDM): R | Susceptibility category (PA-034, blaNDM): R | Susceptibility category (PA-036, blaNDM): R | Susceptibility category (PA-038, blaNDM): R | Susceptibility category (PA-039, blaNDM): S | Susceptibility category (PA-040, blaNDM): R | Susceptibility category (PA-041, blaNDM): R | Susceptibility category (PA-044, blaNDM): R | Susceptibility category (PA-037, blaIMP/NDM): R | Susceptibility category (PA-042, blaIMP/NDM): R

MIC (PA-035, blaGES): > 16 µg/mL | MIC (PA-003, blaVIM): 4 µg/mL | MIC (PA-002, blaIMP): > 16 µg/mL | MIC (PA-032, blaIMP; [2]): 8 µg/mL | MIC (PA-042, blaIMP/NDM): > 16 µg/mL
Compound: CC(C)(O/N=C(\C(=O)N[C@@H]1C(=O)N2C(C(=O)[O-])=C(C[n+]3ccccc3)CS[C@H]12)c1csc(N)n1)C(=O)O [CAZ, ceftazidime, reference compound]
Susceptibility category (PA-009, blaGES): R | Susceptibility category (PA-014, blaGES): R | Susceptibility category (PA-035, blaGES): R | Susceptibility category (PA-003, blaVIM): S | Susceptibility category (PA-002, blaIMP): R | Susceptibility category (PA-016, blaIMP): R | Susceptibility category (PA-021, blaIMP): R | Susceptibility category (PA-027, blaIMP): R | Susceptibility category (PA-029, blaIMP): R | Susceptibility category (PA-030, blaIMP): R | Susceptibility category (PA-032, blaIMP): S | Susceptibility category [1]: R | Susceptibility category (PA-025, blaNDM): R | Susceptibility category (PA-026, blaNDM): R | Susceptibility category (PA-028, blaNDM): R | Susceptibility category (PA-031, blaNDM): R | Susceptibility category (PA-033, blaNDM): R | Susceptibility category (PA-034, blaNDM): R | Susceptibility category (PA-036, blaNDM): R | Susceptibility category (PA-038, blaNDM): R | Susceptibility category (PA-039, blaNDM): R | Susceptibility category (PA-040, blaNDM): R | Susceptibility category (PA-041, blaNDM): R | Susceptibility category (PA-044, blaNDM): R | Susceptibility category (PA-037, blaIMP/NDM): R | Susceptibility category (PA-042, blaIMP/NDM): R

MIC (PA-035, blaGES): 4 µg/mL | MIC (PA-003, blaVIM): > 16 µg/mL | MIC (PA-002, blaIMP): > 16 µg/mL | MIC (PA-026, blaNDM): 8 µg/mL | MIC (PA-042, blaIMP/NDM): > 16 µg/mL
Compound: CO/N=C(\C(=O)N[C@@H]1C(=O)N2C(C(=O)[O-])=C(C[N+]3(C)CCCC3)CS[C@H]12)c1csc(N)n1 [FEP, cefepime, reference compound]
Susceptibility category (PA-009, blaGES): R | Susceptibility category (PA-014, blaGES): R | Susceptibility category (PA-035, blaGES): S | Susceptibility category (PA-003, blaVIM): R | Susceptibility category (PA-002, blaIMP): R | Susceptibility category (PA-016, blaIMP): R | Susceptibility category (PA-021, blaIMP): R | Susceptibility category (PA-027, blaIMP): R | Susceptibility category (PA-029, blaIMP): R | Susceptibility category (PA-030, blaIMP): R | Susceptibility category (PA-032, blaIMP): R | Susceptibility category [1]: R | Susceptibility category (PA-025, blaNDM): R | Susceptibility category (PA-026, blaNDM): S | Susceptibility category (PA-028, blaNDM): R | Susceptibility category (PA-031, blaNDM): R | Susceptibility category (PA-033, blaNDM): R | Susceptibility category (PA-034, blaNDM): R | Susceptibility category (PA-036, blaNDM): R | Susceptibility category (PA-038, blaNDM): R | Susceptibility category (PA-039, blaNDM): R | Susceptibility category (PA-040, blaNDM): R | Susceptibility category (PA-041, blaNDM): R | Susceptibility category (PA-044, blaNDM): R | Susceptibility category (PA-037, blaIMP/NDM): R | Susceptibility category (PA-042, blaIMP/NDM): R

MIC (PA-003, blaVIM): > 8 µg/mL | MIC (PA-002, blaIMP): > 8 µg/mL | MIC (PA-026, blaNDM): ≤ 2 µg/mL | MIC (PA-039, blaNDM): ≤ 2 µg/mL | MIC (PA-041, blaNDM; [2]): ≤ 2 µg/mL
Compound: CNC(C)C1CCC(N)C(OC2C(N)CC(N)C(OC3OCC(C)(O)C(NC)C3O)C2O)O1 (centres unmarked) [GEN, gentamicin, reference compound]
Susceptibility category (PA-009, blaGES): I | Susceptibility category (PA-014, blaGES): R | Susceptibility category (PA-035, blaGES): R | Susceptibility category (PA-003, blaVIM): R | Susceptibility category (PA-002, blaIMP): R | Susceptibility category (PA-016, blaIMP): R | Susceptibility category (PA-021, blaIMP): R | Susceptibility category (PA-027, blaIMP): R | Susceptibility category (PA-029, blaIMP): R | Susceptibility category (PA-030, blaIMP): R | Susceptibility category (PA-032, blaIMP): S | Susceptibility category [1]: R | Susceptibility category (PA-025, blaNDM): R | Susceptibility category (PA-026, blaNDM): S | Susceptibility category (PA-028, blaNDM): R | Susceptibility category (PA-031, blaNDM): R | Susceptibility category (PA-033, blaNDM): R | Susceptibility category (PA-034, blaNDM): R | Susceptibility category (PA-036, blaNDM): R | Susceptibility category (PA-038, blaNDM): R | Susceptibility category (PA-039, blaNDM): S | Susceptibility category (PA-040, blaNDM): R | Susceptibility category (PA-041, blaNDM): S | Susceptibility category (PA-044, blaNDM): R | Susceptibility category (PA-037, blaIMP/NDM): R | Susceptibility category (PA-042, blaIMP/NDM): R

MIC (PA-035, blaGES): 8 µg/mL | MIC (PA-003, blaVIM): > 8 µg/mL | MIC (PA-002, blaIMP): > 8 µg/mL | MIC (PA-026, blaNDM): 4 µg/mL | MIC (PA-042, blaIMP/NDM): > 8 µg/mL
Compound: C[C@@H](O)[C@H]1C(=O)N2C(C(=O)O)=C(SCCN=CN)C[C@H]12 [IPM, imipenem, reference compound]
Susceptibility category (PA-009, blaGES): R | Susceptibility category (PA-014, blaGES): R | Susceptibility category (PA-035, blaGES): R | Susceptibility category (PA-003, blaVIM): R | Susceptibility category (PA-002, blaIMP): R | Susceptibility category (PA-016, blaIMP): R | Susceptibility category (PA-021, blaIMP): R | Susceptibility category (PA-027, blaIMP): R | Susceptibility category (PA-029, blaIMP): R | Susceptibility category (PA-030, blaIMP): R | Susceptibility category (PA-032, blaIMP): R | Susceptibility category [1]: R | Susceptibility category (PA-025, blaNDM): R | Susceptibility category (PA-026, blaNDM): I | Susceptibility category (PA-028, blaNDM): R | Susceptibility category (PA-031, blaNDM): R | Susceptibility category (PA-033, blaNDM): R | Susceptibility category (PA-034, blaNDM): R | Susceptibility category (PA-036, blaNDM): R | Susceptibility category (PA-038, blaNDM): R | Susceptibility category (PA-039, blaNDM): R | Susceptibility category (PA-040, blaNDM): R | Susceptibility category (PA-041, blaNDM): R | Susceptibility category (PA-044, blaNDM): R | Susceptibility category (PA-037, blaIMP/NDM): R | Susceptibility category (PA-042, blaIMP/NDM): R
